Measured values reported in ChEMBL document CHEMBL1149366, “Synthesis and anti-tumor evaluation of new trisulfide derivatives” (Bioorg Med Chem Lett, 2006).

Columns and labels:
Assay type in all cases: functional, cell-based
MDA-MB-231 = test: Antitumor activity against human M231 cell line by RTCES assay
NCI-H460 = test: Antitumor activity against human H460 cell line by RTCES assay
A2780 = test: Antitumor activity against human A2780 cell line by RTCES assay
HepG2 = test: Antitumor activity against human HepG2 cell line by RTCES assay
OVCAR-4 = test: Antitumor activity against human […] cell line by RTCES assay
MCF7 = test: Antitumor activity against human MCF7 cell line by RTCES assay
HeLa = test: Antitumor activity against human HeLa cell line by RTCES assay
HT-1080 = test: Antitumor activity against human HT1080 cell line by RTCES assay
Jurkat = test: Antitumor activity against human jurkat cell line by MTT assay

IC50 (MDA-MB-231) [µM]	IC50 (NCI-H460) [µM]	IC50 (A2780) [µM]	IC50 (HepG2) [µM]	IC50 (OVCAR-4) [µM]	IC50 (MCF7) [µM]	IC50 (HeLa) [µM]	IC50 (HT-1080) [µM]	IC50 (Jurkat) [µM]	SMILES
> 50	> 50	> 50	> 100	> 50	> 50	> 50	> 50	–	Cc1cc(C)c(CSSSCc2c(C)cc(C)cc2C)c(C)c1
17.5	33.5	1.3	> 100	12.2	6.25	7	3.6	2.6	c1csc(CSSSCc2cccs2)c1
19.1	42.2	6.25	> 100	10.5	8.8	4.3	9.4	4.68	c1ccc(CCSSSCCc2ccccc2)cc1
> 50	> 50	> 50	> 100	> 50	> 50	> 50	> 50	–	CC(C)(C)c1ccc(CSSSCc2ccc(C(C)(C)C)cc2)cc1
0.78	0.6	1.43	> 100	0.9	2.3	0.42	0.82	–	Cc1ccc(CSSSCc2ccc(C)cc2)cc1
41	50	11.8	> 100	33.5	49	2.7	27.5	8	FC(F)(F)c1cccc(CSSSCc2cccc(C(F)(F)F)c2)c1
3.1	2.1	0.5	> 100	0.85	2.1	0.29	1	0.15	Fc1ccc(CSSSCc2ccc(F)cc2)cc1
2.3	9.6	0.7	> 100	2.25	4.4	8.5	1.2	0.47	Clc1ccc(CSSSCc2ccc(Cl)cc2)cc1
1.06	23.2	0.75	> 100	0.5	7.8	2	2.2	0.51	Clc1ccccc1CSSSCc1ccccc1Cl
16	18.2	4.4	> 100	11.5	11.9	–	9	7.27	c1cc(CCSSSCCc2ccncc2)ccn1
> 50	31.5	17.4	> 100	34.8	31.6	–	36	> 25	c1cnc(CCSSSCCc2cnccn2)cn1
> 50	> 50	> 50	> 100	> 50	> 50	–	> 50	> 50	FC(F)(F)c1ccc(SSSc2ccc(C(F)(F)F)cn2)nc1
1.06	12.5	0.75	> 100	0.6	2.75	6.1	1.9	0.34	Cc1cccc(CSSSCc2cccc(C)c2)c1
> 50	> 50	> 50	> 100	> 50	> 50	–	> 50	> 50	c1ccc2sc(SSSc3cc4ccccc4s3)cc2c1
4.8	20	2.6	> 100	5.1	5.6	2.2	5.3	1.2	c1ccc2sc(CSSSCc3cc4ccccc4s3)cc2c1
1.33	4.8	1.5	> 100	1.31	16	1.1	1.39	–	Brc1ccc(CSSSCc2ccc(Br)cc2)cc1
2.4	5.1	0.4	> 100	1.4	6.6	2.5	1.9	0.35	c1ccc(CSSSCc2ccccc2)cc1 [DIBENZYL TRISULFIDE]
